For this assay, the system named is L1210 leukemia ip in BDF1 mice, survival T/C. Briefly: NCI In Vivo Anticancer Drug Screen. Data for tumor model L1210 Leukemia (intraperitoneal) in B6D2F1 (BDF1) mice. The settings on record: endpoint: mean survival time, higher = longer survival. The gist of the method:
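Survival endpoint. Drug-treated group vs vehicle group, expressed as T divided by C. Tumor passaged by transplantation.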

Setting [1] is: dose: 100.0 mg/kg/injection, schedule: Q04DX003 (ip), vehicle: saline with Tween-80.
The mark [2] stands for this setting: dose: 200.0 mg/kg/injection, schedule: Q04DX003 (ip), vehicle: saline with Tween-80.
The mark [3] stands for this setting: dose: 400.0 mg/kg/injection, schedule: Q04DX003 (ip), vehicle: saline with Tween-80.
Setting [4] is: dose: 100.0 mg/kg/injection, schedule: Q04DX003 (ip), vehicle: Klucel (hydroxypropylcellulose) (HPC).
The mark [5] stands for this setting: dose: 200.0 mg/kg/injection, schedule: Q04DX003 (ip), vehicle: Klucel (hydroxypropylcellulose) (HPC).
The mark [6] stands for this setting: dose: 400.0 mg/kg/injection, schedule: Q04DX003 (ip), vehicle: Klucel (hydroxypropylcellulose) (HPC).
The mark [7] stands for this setting: dose: 100.0 mg/kg/injection, schedule: Q01DX001 (ip), vehicle: carboxymethylcellulose (CMC).
Setting [8] is: dose: 200.0 mg/kg/injection, schedule: Q01DX001 (ip), vehicle: carboxymethylcellulose (CMC).
Setting [9] is: dose: 400.0 mg/kg/injection, schedule: Q01DX001 (ip), vehicle: carboxymethylcellulose (CMC).
The mark [10] stands for this setting: dose: 100.0 mg/kg/injection, schedule: Q04DX002 (ip), vehicle: saline.
The mark [11] stands for this setting: dose: 200.0 mg/kg/injection, schedule: Q04DX002 (ip), vehicle: saline.
The mark [12] stands for this setting: dose: 100.0 mg/kg/injection, schedule: Q01DX009 (ip), vehicle: Klucel (hydroxypropylcellulose) (HPC).
[13] abbreviates: dose: 200.0 mg/kg/injection, schedule: Q01DX009 (ip), vehicle: Klucel (hydroxypropylcellulose) (HPC).

Values joined by “and” are separate entries in the source; they are usually repeats but may differ in a detail not shown here. Equal values may be shown once. Toxic doses and inconclusive results are not listed.

`NC(=S)N/N=C(/c1cccs1)C1CC1`: the T/C reads like this: (dose: 4.0 mg/kg/injection, schedule: Q01DX Z (ip), vehicle: carboxymethylcellulose (CMC)) 116 % of control; (dose: 4.0 mg/kg/injection, schedule: Q01DX Z (oral), vehicle: carboxymethylcellulose (CMC)) 97 % of control; (dose: 8.0 mg/kg/injection, schedule: Q01DX Z (ip), vehicle: carboxymethylcellulose (CMC)) 107 % of control; (dose: 8.0 mg/kg/injection, schedule: Q01DX Z (oral), vehicle: carboxymethylcellulose (CMC)) 115 % of control; (dose: 16.0 mg/kg/injection, schedule: Q01DX Z (oral), vehicle: carboxymethylcellulose (CMC)) 107 % of control.

For the compound `O=C1CCC/C1=C/c1ccco1`, the T/C by setting is: (dose: 100.0 mg/kg/injection, schedule: Q04DX002 (ip), vehicle: saline with Tween-80) 105 % of control; (dose: 200.0 mg/kg/injection, schedule: Q04DX002 (ip), vehicle: saline with Tween-80) 105 % of control; (dose: 400.0 mg/kg/injection, schedule: Q04DX002 (ip), vehicle: saline with Tween-80) 94 % of control.

Turning to `CCCCOc1ccc(NC(=O)N(C)C)cn1`, the T/C runs as follows: under setting [1], 94 % of control; under setting [2], 96 % of control; under setting [3], 87 % of control.

Regarding `O=[N+]([O-])c1ccc(/C=C/C=C\c2ccc(S(=O)(=O)F)cc2Cl)cc1`, the T/C is 96 % of control under setting [4], 92 % of control under setting [5] and 96 % of control under setting [6].

For the compound `CCOP(=O)(Nc1ccc2c(c1)Cc1cc(Cl)ccc1-2)OCC`, the T/C (dose: 50.0 mg/kg/injection, schedule: Q01DX001 (ip), vehicle: carboxymethylcellulose (CMC)) is 97 % of control; the T/C under setting [7] is 105 % of control; the T/C under setting [8] was 97 % of control; the T/C under setting [9] was 92 % of control.

`O=c1c2ncn(C3OC(CO)C(O)C3O)c2nc2n1N=CC(O)N2` (stereo unspecified): the T/C was 120 % of control (dose: 100.0 mg/kg/injection, schedule: Q01DX005 (ip), vehicle: saline) and 120 % of control (dose: 200.0 mg/kg/injection, schedule: Q01DX005 (ip), vehicle: saline).

For `CCCOC(=O)c1cncc(C(=O)OCCC)c1`, the T/C is, setting by setting: under setting [1], 94 % of control; under setting [2], 105 % of control; under setting [3], 100 % of control.

As to `CCN(CC)CCOc1ccc(C=O)cc1`, the T/C reads like this: under setting [10], 99 % of control; under setting [11], 95 % of control.

Regarding `O=Cc1cc(O)c(O)c(Br)c1`, the T/C by setting is: (dose: 75.0 mg/kg/injection, schedule: Q04DX003 (ip), vehicle: saline) 100 % of control; (dose: 150.0 mg/kg/injection, schedule: Q04DX003 (ip), vehicle: saline) 87 % of control; (dose: 300.0 mg/kg/injection, schedule: Q04DX003 (ip), vehicle: saline) 98 % of control.

In the case of `O=C(Nc1ccc(C(=O)Nc2ccc(C3=NCCN3)cc2)cc1)Nc1ccc(C(=O)Nc2ccc(C3=NCCN3)cc2)cc1`, the T/C is 102 % of control (dose: 15.0 mg/kg/injection, schedule: Q01DX Z (ip), vehicle: methylcellulose (MC)); 103 % of control (dose: 30.0 mg/kg/injection, schedule: Q01DX Z (ip), vehicle: methylcellulose (MC)); 101 % of control (dose: 60.0 mg/kg/injection, schedule: Q01DX Z (ip), vehicle: methylcellulose (MC)); 91 % of control (dose: 62.0 mg/kg/injection, schedule: Q01DX Z (ip), vehicle: carboxymethylcellulose (CMC)); 103 % of control (dose: 120.0 mg/kg/injection, schedule: Q01DX Z (ip), vehicle: methylcellulose (MC)); 91 % of control (dose: 125.0 mg/kg/injection, schedule: Q01DX Z (ip), vehicle: carboxymethylcellulose (CMC)). The T/C (dose: 250.0 mg/kg/injection, schedule: Q01DX Z (ip), vehicle: carboxymethylcellulose (CMC)) was 96 % of control.

Consider `CCCCCCCN(CCCCCCC)C(C)=O`, for which the T/C (dose: 100.0 mg/kg/injection, schedule: Q01DX001 (ip), vehicle: other) is 93 % of control; the T/C (dose: 200.0 mg/kg/injection, schedule: Q01DX001 (ip), vehicle: other) is 93 % of control; the T/C (dose: 400.0 mg/kg/injection, schedule: Q01DX001 (ip), vehicle: other) is 93 % of control.

As for `O=P(OCc1ccccc1)(N(CCCl)CCCl)N1CCN(Cc2ccccc2)CC1` (stereo unspecified), the T/C is, setting by setting: (dose: 10.0 mg/kg/injection, schedule: Q01DX Z (ip), vehicle: saline) 93 % of control; (dose: 30.0 mg/kg/injection, schedule: Q01DX Z (ip), vehicle: saline) 90 % of control; (dose: 100.0 mg/kg/injection, schedule: Q01DX Z (ip), vehicle: saline) 95 % of control.

Regarding `[O-][n+]1ccccc1/C=C\c1ccccc1`, the T/C runs as follows: (dose: 100.0 mg/kg/injection, schedule: Q01DX001 (ip), vehicle: saline) 92 % of control; (dose: 200.0 mg/kg/injection, schedule: Q01DX001 (ip), vehicle: saline) 94 % of control.

Consider `CCCCCCCCCCC(=O)N(CC)CC`, for which the T/C is 97 % of control and 92 % of control (dose: 100.0 mg/kg/injection, schedule: Q01DX009 (ip), vehicle: carboxymethylcellulose (CMC)); 94 % of control (dose: 100.0 mg/kg/injection, schedule: Q04DX002 (ip), vehicle: carboxymethylcellulose (CMC)); 97 % of control and 100 % of control (dose: 200.0 mg/kg/injection, schedule: Q01DX009 (ip), vehicle: carboxymethylcellulose (CMC)); 96 % of control (dose: 200.0 mg/kg/injection, schedule: Q04DX002 (ip), vehicle: carboxymethylcellulose (CMC)); 96 % of control (dose: 400.0 mg/kg/injection, schedule: Q01DX009 (ip), vehicle: carboxymethylcellulose (CMC)); 100 % of control (dose: 400.0 mg/kg/injection, schedule: Q04DX002 (ip), vehicle: carboxymethylcellulose (CMC)).

For the compound `C=C(CCCCC)C(=O)/C=C/c1ccc(Cl)cc1`, the T/C is, setting by setting: (dose: 50.0 mg/kg/injection, schedule: Q01DX009 (ip), vehicle: Klucel (hydroxypropylcellulose) (HPC)) 103 % of control; under setting [12], 97 % of control; under setting [4], 102 % of control; under setting [13], 95 % of control; under setting [5], 100 % of control; under setting [6], 103 % of control.

For the compound `Cc1ccc(S(=O)(=O)S/C(=N\c2ccccn2)Nc2ccccn2)cc1`, the T/C is, setting by setting: under setting [7], 98 % of control; under setting [8], 93 % of control; under setting [9], 91 % of control.

Consider `O=P(N1CC1)(N1CC1)C12CC3CC(CC(C3)C1)C2`, for which the T/C is, setting by setting: (dose: 25.0 mg/kg/injection, schedule: Q01DX009 (ip), vehicle: saline with Tween-80) 170 % of control; (dose: 50.0 mg/kg/injection, schedule: Q01DX009 (ip), vehicle: saline with Tween-80) 243 % of control.

Consider `CC1(C)CCC2(CC1)CC(=O)OC2=O`, for which the T/C reads like this: under setting [1], 95 % of control; under setting [2], 97 % of control; under setting [3], 98 % of control.

Take `Cc1cccc(-c2nc3ncnc(N)c3[nH]2)c1`: the T/C (dose: 6.25 mg/kg/injection, schedule: Q01DX001 (ip), vehicle: saline with Tween-80) was 95 % of control; the T/C (dose: 12.5 mg/kg/injection, schedule: Q01DX001 (ip), vehicle: saline with Tween-80) was 97 % of control; the T/C (dose: 25.0 mg/kg/injection, schedule: Q01DX001 (ip), vehicle: saline with Tween-80) was 101 % of control.

For the compound `O=P(O)(O)CO`, the T/C by setting is: under setting [10], 97 % of control and 87 % of control; under setting [11], 86 % of control.

Turning to `CC(=O)C(C(C)=O)C1C=CCC1` (stereo unspecified), the T/C reads like this: under setting [1], 96 % of control; under setting [2], 107 % of control; under setting [3], 89 % of control.

In the case of `CN(C)NC(=O)/C=C/c1ccccc1`, the T/C was 112 % of control under setting [12]; 94 % of control under setting [4]; 102 % of control under setting [13]; 100 % of control under setting [5]; 87 % of control under setting [6].
